Measured values reported in PubChem BioAssay (NCI).
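Values below derive from 48-hour exposures of cells grown in 96-well plates, with endpoints linearly interpolated between the two concentrations bracketing the appropriate inhibition level. TGI is the concentration that stops growth completely.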

Assays:
Assay in all cases: NCI anticancer screen, dose series, 48 h
[1] = system: 786-0 renal
[2] = system: A549 NSCLC
[3] = system: ACHN renal
[4] = system: BT-549 breast
[5] = system: CAKI-1 renal
[6] = system: CCRF-CEM leukemia
[7] = system: COLO 205 colon
[8] = system: DU-145 prostate
[9] = system: EKVX NSCLC
[10] = system: HCC-2998 colon
[11] = system: HCT-116 colon
[12] = system: HCT-15 colon
[13] = system: HL-60(TB) leukemia
[14] = system: HOP-62 NSCLC
[15] = system: HOP-92 NSCLC
[16] = system: HS 578T breast
[17] = system: HT29 colon
[18] = system: IGROV1 ovarian
[19] = system: K-562 leukemia
[20] = system: KM12 colon
[21] = system: LOX IMVI melanoma
[22] = system: M14 melanoma
[23] = system: MALME-3M melanoma
[24] = system: MCF7 breast
[25] = system: MDA-MB-231 breast
[26] = system: MDA-MB-435
[27] = system: MDA-N
[28] = system: NCI-H23 lung
[29] = system: NCI-H460 lung
[30] = system: NCI-H522 lung
[31] = system: NCI/ADR-RES ovarian
[32] = system: OVCAR-3 ovarian
[33] = system: OVCAR-4 ovarian
[34] = system: OVCAR-5 ovarian
[35] = system: PC-3 prostate
[36] = system: RPMI-8226 leukemia
[37] = system: RXF 393 renal
[38] = system: SF-268 CNS
[39] = system: SF-295 CNS
[40] = system: SF-539 CNS
[41] = system: SK-MEL-2 melanoma
[42] = system: SK-MEL-28 melanoma
[43] = system: SK-MEL-5 melanoma
[44] = system: SK-OV-3 ovarian
[45] = system: SN12C renal
[46] = system: SNB-19 CNS
[47] = system: SNB-75 CNS
[48] = system: SR leukemia
[49] = system: SW-620 colon
[50] = system: T-47D breast
[51] = system: TK-10 renal
[52] = system: U251 CNS
[53] = system: UACC-257 melanoma
[54] = system: UACC-62 melanoma
[55] = system: UO-31 renal
[56] = system: A498 renal
[57] = system: MOLT-4 leukemia
[58] = system: NCI-H226 lung
[59] = system: OVCAR-8 ovarian

Measured: TGI

CC(=O)OC1=NN=C2COC(c3ccccc3OC(C)=O)=NN2C1
18.1 µM: [43]
not listed: [56] | [57] | [58] | [59]
> 50 µM: all other assays above

CCSc1nnc(Sc2c3ccccc3nc3ccccc23)s1
> 56.4 µM: [38]
16.7 µM: [9]
38.6 µM: [43]
7.54 µM: [1]
15.5 µM: [5]
53.1 µM: [28]
23.6 µM: [53]
15.8 µM: [51]
77.8 µM: [20]
43.4 µM: [34]
46.7 µM: [35]
> 84.5 µM: [46]
31.6 µM: [54]
> 55.6 µM: [17]
30.2 µM: [8]
> 78.9 µM: [58]
> 55 µM: [18]
> 44.2 µM: [50]
13.3 µM: [12]
42.5 µM: [29]
> 62.4 µM: [56]
17.5 µM: [24]
> 44.8 µM: [15]
> 64.2 µM: [31]
59.9 µM: [45]
17.7 µM: [3]
21.9 µM: [40]
> 59.1 µM: [42]
56.6 µM: [25]
> 40.8 µM: [49]
35.3 µM: [37]
> 57.9 µM: [52]
6.25 µM: [57]
> 28 µM: [36]
25.3 µM: [10]
23.7 µM: [21] | [55]
29.4 µM: [32]
32.1 µM: [22]
23.5 µM: [11]
> 51.5 µM: [59]
56.2 µM: [41]
> 61.8 µM: [26]
31.7 µM: [4]
34.7 µM: [33]
7.01 µM: [7]
25.1 µM: [27]
not listed: [13] | [30]
> 100 µM: all other assays above

O=C(Nc1ccc(Cl)cc1)c1cc(S(=O)(=O)Nc2n[nH]c(Nc3ccc4ccccc4c3)n2)c(SSc2cc(Cl)c(C(=O)Nc3ccc(Cl)cc3)cc2S(=O)(=O)Nc2n[nH]c(Nc3ccc4ccccc4c3)n2)cc1Cl
60.5 µM: [40]
> 64 µM: [24]
> 94.3 µM: [1]
59.8 µM: [15]
58.3 µM: [39]
46.5 µM: [25]
50.4 µM: [20] | [46]
38.8 µM: [7]
> 84.2 µM: [27]
66.5 µM: [28] | [44]
38.2 µM: [17]
> 71.9 µM: [59]
60.8 µM: [51]
97.5 µM: [33]
46.9 µM: [42]
> 74.4 µM: [8]
80.6 µM: [14]
69.1 µM: [35]
65.3 µM: [55]
40.6 µM: [43]
51.7 µM: [54]
42.3 µM: [57]
> 74.7 µM: [36]
79.9 µM: [37]
49.8 µM: [49]
> 96.4 µM: [53]
> 63 µM: [13]
39.5 µM: [11]
43.6 µM: [6] | [50]
> 68 µM: [48]
50.5 µM: [34]
47.3 µM: [19]
> 80.3 µM: [26]
50.8 µM: [30]
37.8 µM: [21]
56.1 µM: [18]
52.1 µM: [56]
73.7 µM: [29]
43.7 µM: [10] | [12]
54.4 µM: [58]
76.6 µM: [47]
38 µM: [5]
58.6 µM: [52]
53.9 µM: [3]
59.2 µM: [45]
61.1 µM: [4]
43 µM: [23]
> 85.4 µM: [31]
59.5 µM: [32]
59 µM: [22]
not listed: [41]
> 100 µM: all other assays above

CC1(C)C2CC(O)C1(C)CC2=O (stereo not given)
14.8 µM: [42]
not listed: [5] | [9] | [41] | [56]
> 100 µM: all other assays above

CC1=CC[C@H](C[C@H](C#CCCCC2OCCO2)O[Si](C(C)C)(C(C)C)C(C)C)C(=O)CC1
not listed: [13] | [30] | [40]
> 100 µM: all other assays above

O=C(CC(O)(C(F)(F)F)C(F)(F)F)C(c1ccccc1)C(O)(C(F)(F)F)C(F)(F)F (stereo not given)
27.2 µM: [47]
94.1 µM: [40]
79.5 µM: [3]
41.8 µM: [16]
83.4 µM: [32]
25.2 µM: [37]
13 µM: [15]
88.8 µM: [44]
not listed: [13] | [14] | [38] | [45]
> 100 µM: all other assays above

NC(CSS(=O)(=O)O)=NC1CC2CCC1C2 (stereo not given)
not listed: [9] | [10] | [17] | [34] | [55]
> 100 µM: all other assays above
